ChEMBL document CHEMBL2016562, “Optimization of Pharmacokinetics through Manipulation of Physicochemical Properties in a Series of HCV Inhibitors” (ACS Med Chem Lett, 2011)

Legend:
[1] = Mean residence time in Sprague-Dawley rat; type: ADME, organism-based; conditions: in vivo
[2] = Oral bioavailability in Sprague-Dawley rat after 30 mins; type: ADME, organism-based; conditions: in vivo
[3] = Half life in Sprague-Dawley rat liver microsomes; type: ADME, Microsome
Hepatitis C virus = test: Antiviral activity against HCV subtype 1b in replicon cells after 3 days by luciferase reporter gene assay; type: functional, Hepacivirus hominis; conditions: genotype 1b, 72 h
[4] = Clearance in Sprague-Dawley rat after 30 mins; type: ADME, organism-based; conditions: in vivo
[5] = Volume of distribution at steady state in Sprague-Dawley rat after 30 mins; type: ADME, organism-based; conditions: in vivo, read-out: Vdss
[6] = Apparent permeability by PAMPA assay; type: ADME

Row | Compound | MRT [1] [h] | bioavailability [2] [%] | half-life [3] [h] | EC50 (Hepatitis C virus) [nM] | clearance [4] [mL/min/kg] | Vd [5] [L/kg] | Papp [6] [×10⁻⁶ cm/s]
1 | NS(=O)(=O)c1ccc(CNc2nc(NCC(F)(F)F)c3nc(-c4ccc(F)cc4)ccc3n2)cc1 | 6.9 | 100 | > 6.58 | 16 | 5 | 2.3 | –
2 | NS(=O)(=O)c1ccc(CNc2nc(NCC(F)(F)F)c3nc(-c4ccc(-n5cncn5)cc4)ccc3n2)cc1 | – | 4 | > 6.58 | 2 | – | – | –
3 | NS(=O)(=O)c1ccc(CNc2nc(NCC(F)(F)F)c3nc(-c4ccc(F)nc4)ccc3n2)cc1 | 4.9 | – | 4.63 | 10 | 3.33 | 1 | –
4 | NS(=O)(=O)c1cc(Cl)cc(CNc2nc(NC3(C(F)(F)F)CC3)c3nc(-c4ccc(F)cc4)ccc3n2)c1 | 11 | – | > 6.58 | 28 | 6.67 | 4.3 | –
5 | COc1ccc(-c2ccc3nc(NCc4ccc(S(N)(=O)=O)cc4)nc(NCC(F)(F)F)c3n2)cc1S(C)(=O)=O | 0.8 | 1 | > 6.58 | 1 | – | – | –
6 | COc1ccc(-c2ccc3nc(N[C@H](C)c4ccc(-n5cncn5)cc4)nc(NCC(F)(F)F)c3n2)cc1S(C)(=O)=O | 2.6 | 47 | 5.85 | 2 | – | – | –
7 | CC1(Oc2nc(NCc3ccc(-n4cncn4)cc3)nc3ccc(-c4ccc(OC5CC5)nc4)nc23)CC1 | 1.9 | 100 | > 6.58 | 2 | – | – | –
8 | NS(=O)(=O)c1ccc(CNc2nc(NCC(F)(F)F)c3nc(-c4ccc(NC(=O)C5CC5)cc4)ccc3n2)cc1 | – | 1 | 1.17 | 3 | – | – | 0.004

Further compounds by falling EC50 (Hepatitis C virus), results first:

Row | MRT [1] [h] | bioavailability [2] [%] | half-life [3] [h] | EC50 (Hepatitis C virus) [nM] | clearance [4] [mL/min/kg] | Vd [5] [L/kg] | Papp [6] [×10⁻⁶ cm/s] | Compound
9 | – | 39 | > 6.58 | 6 | – | – | 0.09 | NS(=O)(=O)c1cc(CNc2nc(NCC(F)(F)F)c3nc(-c4ccc(NC(=O)C5(C(F)(F)F)CC5)cc4)ccc3n2)cc(C(F)(F)F)c1
10 | 0.9 | – | > 6.58 | 5 | 15 | 0.9 | – | N#CC1(Nc2nc(NCc3ccc(S(N)(=O)=O)cc3)nc3ccc(-c4ccc(F)nc4)nc23)CC1
11 | 3.5 | 88 | 3.92 | 4 | – | – | – | C[C@@H](Nc1nc(NC2(C(F)(F)F)CC2)c2nc(-c3cccc(S(C)(=O)=O)c3)ccc2n1)c1ccc(-n2cncn2)cc1
12 | 5.3 | 59 | > 6.58 | 3 | – | – | – | FC(F)(F)CNc1nc(NCc2ccc(-n3cncn3)cc2)nc2ccc(-c3ccc(OC4CC4)nc3)nc12
13 | 0.4 | 2 | 1.62 | 1 | – | – | – | COc1ccc(-c2ccc3nc(NCc4ccc(S(N)(=O)=O)cc4)nc(NC4(C#N)CC4)c3n2)cn1
